Laboratory results taken from patent publication US20230381139A1, “METHODS OF TREATING AND/OR PREVENTING ALZHEIMER’S DISEASE WITH R-CARVEDILOL” (priority 2020, published 2023).

What was measured:
Format in all cases: in vivo, mouse
[1] = system: hippocampal CA3-CA1 pathway of 3×TG+/− mice; experiment: Long-term potentiation recording in hippocampal slices from treated 3×TG+/− mice; settings: brain slices from 12-15 months old 3×TG+/− mice, 3.2 mg/kg/day for one month; vs DMSO
Protocol: Schaffer collateral fibers were stimulated at the CA3 subfield to record field excitatory postsynaptic potentials (fEPSPs) in the CA1 stratum radiatum of transverse hippocampal slices ([…]) from all genotypes and drug-treated mice at different ages. After recovering at room temperature for 1 h (or 2 h for brain slices from drug-treated mice), hippocampal slices were allowed to recover in the recording chamber for additional 10 min. To evaluate basal synaptic transmission, different stimulation strengths (0 μA to 200 μA in steps of 20 μA) were applied and plotted fEPSP slopes versus the current input to compare the slope of input/output (I/O) curves of fEPSP. In the experiments that followed, stimulus current was adjusted so that fEPSP stabilized at 40-50% of maximum. Baseline was recorded for at least […] until the differences among fEPSP slopes were within 10%. Long-term potentiation (LTP) was induced using a tetanic high-frequency stimulation (HFS; 4 trains of 100 pulses at 100 Hz, with 20-sec intervals). Synaptic responses were recorded for at least 60 min after tetanization and quantified as the slope of the evoked fEPSP as percentage of the baseline.

[2] = system: hippocampal CA1 and subiculum neurons of 3×TG+/− mice; experiment: Nissl staining, neuron density in 3×TG+/− mice; settings: 12-15 months old 3×TG+/− mice, 3.2 mg/kg/day for one month; vs DMSO
Protocol: (§1) Genetically engineered mice of 12-15 months old, 3×TG+/− (Oddo et al., 2003), RyR2-E4872Q+/− (EQ+/−)(Chen et al., 2014), 3×TG+/−/RyR2-E48720+/− (3×TG+/−/EQ+/−), and WT littermates of both sexes were used. Sex differences, which may produce biological variables, were not investigated in this study. R-carvedilol (R-CV) (3.2 mg/kg/day) and vehicle control (DMSO) were delivered to 3×TG+/− mice in drinking water for one month. As shown previously, only heterozygous RyR2-E4872Q+/− mutant mice were produced as homozygous E4872Q+/+mutation is embryonic lethal (Chen et al., 2014). Functional RyR2s are tetrameric channels formed by 4 RyR2 monomers. The heterozygous E4872Q+/− mutant mice (harboring one WT allele and one E4872Q mutant allele) will produce a mixture of homo- and hetero-tetrameric channels that contain the WT, E48720 mutant, or both WT/E4872Q mutant monomers. Thus, the RyR2-E4872Q mutation can exert its negative impact not only on the function of the E4872Q homo-tetramers, but also on the function of the WT monomer in the WT/E4872Q hetero-tetrameric channels.
For the Nissl staining, paraffin-embedded brain tissue sections (5 μm) were immersed in xylene (5 min, 2 times), rehydrated in absolute ethanol (5 min, 2 times) followed by 95%, 75% and 50% solutions of ethanol in water (5 min each), then washed in distilled water for 2 times, 5 min each. […]

3×TG+/− mice = experiment: Learning and memory tests (Morris water maze, novel object recognition) in 3×TG+/− mice; settings: 12-15 months old 3×TG+/− mice, 3.2 mg/kg/day for one month; vs DMSO
Protocol: as §1
The learning and memory of mice with all genotypes were evaluated using the Morris water maze (MWM) test, the Barnes maze (BM) test, and/or the novel object recognition (NOR) test. Experiments were carried out blindly. For the MWM test, mice at different ages were trained to localize a hidden escape platform (10×10 cm) in a circular pool (116.84 cm in diameter, 50 cm in depth) (San Diego Instruments, CA) via distal visual cue. The platform was submerged 1-2 cm beneath the surface in water (22-24°C.), which was rendered opaque by addition of milk powder. The localization of the pool in relation to visual cues was maintained constantly during the entire task. The cues were distinct in color and shape. Digital division of the tracking area (pool) into four quadrants was performed by the SMART video tracking system, Smart 3.0 (Panlab Harvard Apparatus; Barcelona Spain). The escape platform was placed in the centre of the south-west quadrant for the entirety of the learning phase (4 training days) and digitally defined as target. Spatial training consisted of 4 days with 5 trials per mouse per day. Mice were released with their heads facing the pool wall at one of four entry locations (north, east, south and west) in a non-repetitive random order. Swimming was automatically video-tracked until the subject found the escape platform and remained on it (≥5 sec), or until a maximum of 60 seconds. […] In between trials (inter-trial interval ≥10 min), mice were housed in heated cages to avoid performance deficits due to exhaustion or hypothermia. The latency and swimming speed to reach the escape platform were recorded for comparison. After the learning phase, memory retention was evaluated by one probe trial 24 hours after the last training session. The escape platform was removed before mice were released from the north entry point into the pool. Their swimming was video-tracked for 60 seconds. […] The percentage of time mice spent in the target quadrant (including the target) were measured for comparison.
For the NOR test, mice were habituated for 10 min per mouse in an equally illuminated, odor-free, white, plastic box (40×40×50 cm^3) embedded with fresh aspen shavings and shreds. […] Mice were video recorded during this familiarizing phase. Side preferences was evaluated by dividing the time a mouse spent exploring one object by the time they spent at the other object. […]

COc1ccccc1OCCNC[C@@H](O)COc1cccc2[nH]c3ccccc3c12 [R-carvedilol, R-(+)-carvedilol]
hippocampal LTP (potentiation of fEPSP slope) [1]: significantly enhanced
density of neurons in the hippocampal CA1 region [2]: no significant difference
density of neurons in the subiculum area [2]: significantly higher
discrimination index in the NOR test (3×TG+/− mice): increased
latency to the target platform in the MWM test (3×TG+/− mice): significantly shortened
swimming speed in the MWM test (3×TG+/− mice): increased
time spent in the target zone in the MWM test (3×TG+/− mice): increased
walking velocity in the NOR test (3×TG+/− mice): increased
